From article PMC6102140, “Structural insight into the human mitochondrial tRNA purine N1-methyltransferase and ribonuclease P complexes” (The Journal of Biological Chemistry, 2018)

How the values were obtained:
[1] = molecular target: T1, MRPP1ΔMTS–MRPP2 complex (SDR activity of MRPP2) (Homo sapiens, UniProt Q99714); experiment: differential scanning fluorimetry; type: binding; details: pH 7.5, 150 mM NaCl
T1 construct: gene HSD17B10; co-expressed in E. coli; His-tagged mature MRPP1 (40-403) and untagged full-length MRPP2; 2:4 complex, 194 kDa by SEC-MALS; with tRNA methyltransferase 10 homolog C
T1 sequence (Q99714 2-261): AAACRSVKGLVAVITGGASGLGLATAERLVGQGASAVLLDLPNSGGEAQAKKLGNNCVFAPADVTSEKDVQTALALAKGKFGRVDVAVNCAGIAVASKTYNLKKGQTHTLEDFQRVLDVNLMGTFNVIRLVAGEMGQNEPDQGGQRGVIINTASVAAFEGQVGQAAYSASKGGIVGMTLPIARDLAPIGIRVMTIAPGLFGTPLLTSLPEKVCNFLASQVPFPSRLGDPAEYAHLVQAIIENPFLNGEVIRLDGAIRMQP
T1 sequence (Q7L0Y3 40-403 partner): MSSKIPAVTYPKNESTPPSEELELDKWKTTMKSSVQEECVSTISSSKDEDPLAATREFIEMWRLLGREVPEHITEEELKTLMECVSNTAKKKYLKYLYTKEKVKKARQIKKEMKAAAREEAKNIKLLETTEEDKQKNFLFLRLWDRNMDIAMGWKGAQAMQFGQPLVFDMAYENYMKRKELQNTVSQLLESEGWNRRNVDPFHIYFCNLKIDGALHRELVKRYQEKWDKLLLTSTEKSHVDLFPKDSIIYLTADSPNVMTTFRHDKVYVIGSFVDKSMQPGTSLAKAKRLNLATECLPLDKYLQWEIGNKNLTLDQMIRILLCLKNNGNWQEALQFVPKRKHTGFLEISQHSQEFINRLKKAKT

[2] = molecular target: MRPP1N (N domain of MRPP1), expressed alone (human) (UniProt Q7L0Y3); experiment: SEC; analytical SEC of single proteins, Superdex S200 10/300 GL (or KW403-4F), apparent mass from standards of known Mr, n = 3
[3] = molecular target: T2, MRPP1ΔMTS–MRPP2 complex (SAM site / MTase activity of MRPP1) (Homo sapiens, UniProt Q7L0Y3); experiment: differential scanning fluorimetry; type: binding; details: pH 7.5, 150 mM NaCl
T2 construct: gene TRMT10C; co-expressed in E. coli; His-tagged mature MRPP1 (40-403) and untagged full-length MRPP2; 2:4 complex, 194 kDa by SEC-MALS; with 3-hydroxyacyl-CoA dehydrogenase type-2
T2 sequence (Q7L0Y3 40-403): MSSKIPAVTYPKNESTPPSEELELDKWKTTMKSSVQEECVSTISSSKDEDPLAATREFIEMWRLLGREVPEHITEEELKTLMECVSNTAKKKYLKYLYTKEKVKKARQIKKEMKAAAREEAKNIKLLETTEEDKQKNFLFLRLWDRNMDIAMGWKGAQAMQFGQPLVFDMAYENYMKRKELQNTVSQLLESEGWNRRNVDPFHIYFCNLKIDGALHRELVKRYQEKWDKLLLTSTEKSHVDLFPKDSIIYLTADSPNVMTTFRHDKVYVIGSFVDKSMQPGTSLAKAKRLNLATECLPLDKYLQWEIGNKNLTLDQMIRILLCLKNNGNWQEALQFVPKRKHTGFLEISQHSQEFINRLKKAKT
T2 sequence (Q99714 2-261 partner): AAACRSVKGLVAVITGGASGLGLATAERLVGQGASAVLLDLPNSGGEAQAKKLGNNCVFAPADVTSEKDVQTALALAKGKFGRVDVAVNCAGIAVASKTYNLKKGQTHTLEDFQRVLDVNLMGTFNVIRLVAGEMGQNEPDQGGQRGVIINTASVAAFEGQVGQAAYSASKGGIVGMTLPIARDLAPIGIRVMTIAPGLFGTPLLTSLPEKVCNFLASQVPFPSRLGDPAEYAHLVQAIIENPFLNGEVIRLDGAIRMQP

MRPP1MT+C(Δ202) = molecular target: T3, MRPP1MT+C(Δ202) (Homo sapiens, UniProt Q7L0Y3); experiment: X-ray crystal structure, […] Å; type: binding; details: co-crystallised with SAM, 4 °C
T3 construct: gene TRMT10C; methyltransferase domain with C extension, residues 203-403, N-terminal His6 vector, E. coli; residues 380-403 disordered; monomer
T3 sequence (Q7L0Y3 203-403): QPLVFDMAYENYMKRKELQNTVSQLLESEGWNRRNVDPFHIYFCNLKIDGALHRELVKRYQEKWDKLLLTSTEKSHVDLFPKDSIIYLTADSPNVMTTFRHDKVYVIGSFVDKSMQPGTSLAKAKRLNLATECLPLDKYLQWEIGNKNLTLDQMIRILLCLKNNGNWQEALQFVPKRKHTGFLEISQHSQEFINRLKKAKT

MRPP1ΔMTS = molecular target: T4, MRPP1ΔMTS (Homo sapiens, UniProt Q7L0Y3); experiment: differential scanning fluorimetry; type: binding; details: 7.5 mM SAM; pH 7.5, 150 mM NaCl
T4 construct: gene TRMT10C; mature protein without mitochondrial targeting signal, residues 40-403, N-terminal His6 vector, E. coli; monomer/dimer mixture
T4 sequence (Q7L0Y3 40-403): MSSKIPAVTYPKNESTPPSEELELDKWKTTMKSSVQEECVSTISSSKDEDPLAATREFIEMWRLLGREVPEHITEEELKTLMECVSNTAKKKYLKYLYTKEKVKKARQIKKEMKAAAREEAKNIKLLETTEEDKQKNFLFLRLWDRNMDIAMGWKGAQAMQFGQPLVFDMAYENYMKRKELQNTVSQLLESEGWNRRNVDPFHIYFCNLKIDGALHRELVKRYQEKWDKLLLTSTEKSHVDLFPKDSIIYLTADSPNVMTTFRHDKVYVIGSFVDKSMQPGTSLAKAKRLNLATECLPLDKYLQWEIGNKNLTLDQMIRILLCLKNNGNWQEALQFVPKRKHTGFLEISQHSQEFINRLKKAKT

MRPP1MT+C(Δ194) = molecular target: T5, MRPP1MT+C(Δ194) (Homo sapiens, UniProt Q7L0Y3); experiment: differential scanning fluorimetry; type: binding; details: pH 7.5, 150 mM NaCl
T5 construct: gene TRMT10C; methyltransferase domain with C extension, residues 195-403, N-terminal His6 vector, E. coli; monomer
T5 sequence (Q7L0Y3 195-403): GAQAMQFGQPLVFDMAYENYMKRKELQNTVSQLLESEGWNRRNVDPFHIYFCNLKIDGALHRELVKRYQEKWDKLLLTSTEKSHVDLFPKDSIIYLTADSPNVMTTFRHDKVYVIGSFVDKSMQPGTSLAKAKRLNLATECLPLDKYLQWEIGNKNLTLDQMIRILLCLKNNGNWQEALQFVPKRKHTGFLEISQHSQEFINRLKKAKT

[4] = molecular target: the molecule itself; experiment: SEC; analytical SEC of single proteins, Superdex S200 10/300 GL (or KW403-4F), apparent mass from standards of known Mr, n = 3
[5] = substrate: CC(=O)[C@H]1CC[C@H]2[C@@H]3CC[C@H]4C[C@H](O)CC[C@]4(C)[C@H]3CC[C@]12C; experiment: 3alpha-HSD (SDR) activity, fluorescence, Michaelis-Menten fit; type: biochemical, Homo sapiens; details: MRPP2 alone
From the text: 3alpha-HSD (SDR) activity, fluorescence, Michaelis-Menten fit on MRPP2 | measured using the neurosteroid allopregnanolone as MRPP2 substrate

[6] = substrate: CC(=O)[C@H]1CC[C@H]2[C@@H]3CC[C@H]4C[C@H](O)CC[C@]4(C)[C@H]3CC[C@]12C; experiment: as above; type: biochemical, Homo sapiens; details: in complex with MRPP1ΔMTS
[7] = molecular target: T6, MRPP2, untagged, co-expressed with His-tagged MRPP1 constructs (bicistronic plasmid) (human), Q99714; experiment: SEC-SAXS; KW403-4F column in line with SAXS, 4.5 mg/ml; 50 mM sodium phosphate pH 7.4, 300 mM NaCl, 5% glycerol, 1% sucrose, 0.5 mM TCEP (for MRPP1, MRPP2 and MRPP1–MRPP2; buffer for MRPP3 alone not told); no tRNA; details: remark: other sources report otherwise
T6 chain: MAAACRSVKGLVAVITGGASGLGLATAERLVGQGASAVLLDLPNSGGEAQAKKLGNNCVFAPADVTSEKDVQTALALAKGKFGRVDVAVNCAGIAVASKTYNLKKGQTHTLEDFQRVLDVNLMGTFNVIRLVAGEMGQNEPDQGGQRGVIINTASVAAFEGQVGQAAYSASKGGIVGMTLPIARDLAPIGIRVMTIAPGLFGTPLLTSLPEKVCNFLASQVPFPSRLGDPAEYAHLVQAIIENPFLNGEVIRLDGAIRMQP

[8] = molecular target: T7, MRPP2 (HSD17B10), expressed alone, tag removed (human), Q99714; experiment: as above; details: remark: other sources report otherwise
T7 chain: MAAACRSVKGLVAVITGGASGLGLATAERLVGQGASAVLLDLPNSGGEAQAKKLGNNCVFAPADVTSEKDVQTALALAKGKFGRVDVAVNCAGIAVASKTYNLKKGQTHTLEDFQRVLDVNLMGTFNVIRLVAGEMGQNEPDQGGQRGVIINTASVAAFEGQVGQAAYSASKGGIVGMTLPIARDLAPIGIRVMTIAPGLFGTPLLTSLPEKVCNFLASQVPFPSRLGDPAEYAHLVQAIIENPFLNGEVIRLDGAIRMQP

[9] = ligand concentration not in text, text says MTase domain, construct boundary not stated

NC(=O)C1=CN([C@@H]2O[C@H](COP(=O)(O)OP(=O)(O)OC[C@H]3O[C@@H](n4cnc5c(N)ncnc54)[C@H](O)[C@@H]3O)[C@@H](O)[C@H]2O)C=CC1 [NADH]
Tm shift [1]: retained their ability to bind the cofactor (NADH) and methyl donor (SAM)

MRPP1N (N domain of MRPP1), expressed alone (from UniProt Q7L0Y3 40-203) (domain or fragment)
stoichiometry N [2]: 2

C[S+](CC[C@H](N)C(=O)O)C[C@H]1O[C@@H](n2cnc3c(N)ncnc32)[C@H](O)[C@@H]1O (stereo partly drawn) [SAM, S-adenosyl-L-methionine]
Tm shift [3]: retained their ability to bind the cofactor (NADH) and methyl donor (SAM) | X-ray crystal structure, 1.96 Å (MRPP1MT+C(Δ202)): Each MRPP1MT subunit is bound by a SAM molecule | Tm shift (MRPP1ΔMTS): 6.04 ± 0.09 °C | Tm shift (MRPP1MT+C(Δ194); 7.5 mM SAM): 9.75 ± 0.48 °C

Nc1ncnc2c1ncn2[C@@H]1O[C@H](CO)[C@@H](OP(=O)(O)O)[C@H]1O [3′-AMP]
Tm shift (MRPP1MT+C(Δ194); [9]): 3.65 ± 0.16 °C

Nc1ncnc2c1ncn2[C@@H]1O[C@H](CSCC[C@H](N)C(=O)O)[C@@H](O)[C@H]1O [S-adenosyl-homocysteine]
Tm shift (MRPP1MT+C(Δ194); [9]): 5.00 ± 0.18 °C

B1: MRPP1_(ΔMTS) (mature mitochondrial RNase P protein 1, aa 40–403), expressed alone (natural protein, human, UniProt Q7L0Y3 40-403, looked up)
chain: MSSKIPAVTYPKNESTPPSEELELDKWKTTMKSSVQEECVSTISSSKDEDPLAATREFIEMWRLLGREVPEHITEEELKTLMECVSNTAKKKYLKYLYTKEKVKKARQIKKEMKAAAREEAKNIKLLETTEEDKQKNFLFLRLWDRNMDIAMGWKGAQAMQFGQPLVFDMAYENYMKRKELQNTVSQLLESEGWNRRNVDPFHIYFCNLKIDGALHRELVKRYQEKWDKLLLTSTEKSHVDLFPKDSIIYLTADSPNVMTTFRHDKVYVIGSFVDKSMQPGTSLAKAKRLNLATECLPLDKYLQWEIGNKNLTLDQMIRILLCLKNNGNWQEALQFVPKRKHTGFLEISQHSQEFINRLKKAKT
notes: human MRPP1 (TRMT10C/RG9MTD1), 403 aa precursor; residues 40-403, without the mitochondrial targeting signal (1-39); In solution a mixture of monomer and dimer; also called TRMT10C; RG9MTD1; source: E. coli BL21(DE3)-R3-pRARE2, purified
stoichiometry N [4]: 2

B2: MRPP2 (Homo sapiens) (protein)
chain: AAACRSVKGLVAVITGGASGLGLATAERLVGQGASAVLLDLPNSGGEAQAKKLGNNCVFAPADVTSEKDVQTALALAKGKFGRVDVAVNCAGIAVASKTYNLKKGQTHTLEDFQRVLDVNLMGTFNVIRLVAGEMGQNEPDQGGQRGVIINTASVAAFEGQVGQAAYSASKGGIVGMTLPIARDLAPIGIRVMTIAPGLFGTPLLTSLPEKVCNFLASQVPFPSRLGDPAEYAHLVQAIIENPFLNGEVIRLDGAIRMQP
notes: full-length MRPP2, N-terminal His6 (pNIC28-Bsa4), TEV treated, E. coli; homotetramer
Km [5]: 7.70 ± 0.50 µM

B3: MRPP1ΔMTS–MRPP2 complex (SDR activity of MRPP2) (Homo sapiens) (protein)
chain: AAACRSVKGLVAVITGGASGLGLATAERLVGQGASAVLLDLPNSGGEAQAKKLGNNCVFAPADVTSEKDVQTALALAKGKFGRVDVAVNCAGIAVASKTYNLKKGQTHTLEDFQRVLDVNLMGTFNVIRLVAGEMGQNEPDQGGQRGVIINTASVAAFEGQVGQAAYSASKGGIVGMTLPIARDLAPIGIRVMTIAPGLFGTPLLTSLPEKVCNFLASQVPFPSRLGDPAEYAHLVQAIIENPFLNGEVIRLDGAIRMQP
notes: co-expressed in E. coli; His-tagged mature MRPP1 (40-403) and untagged full-length MRPP2; 2:4 complex, 194 kDa by SEC-MALS; with tRNA methyltransferase 10 homolog C
Km [6]: 3.40 ± 0.40 µM

B4: MRPP2, untagged, co-expressed with His-tagged MRPP1 constructs (bicistronic plasmid), Q99714 1-261 (natural protein)
chain: MAAACRSVKGLVAVITGGASGLGLATAERLVGQGASAVLLDLPNSGGEAQAKKLGNNCVFAPADVTSEKDVQTALALAKGKFGRVDVAVNCAGIAVASKTYNLKKGQTHTLEDFQRVLDVNLMGTFNVIRLVAGEMGQNEPDQGGQRGVIINTASVAAFEGQVGQAAYSASKGGIVGMTLPIARDLAPIGIRVMTIAPGLFGTPLLTSLPEKVCNFLASQVPFPSRLGDPAEYAHLVQAIIENPFLNGEVIRLDGAIRMQP
stoichiometry N [7]: 4

B5: MRPP2 (HSD17B10), expressed alone, tag removed, Q99714 1-261 (natural protein)
chain: MAAACRSVKGLVAVITGGASGLGLATAERLVGQGASAVLLDLPNSGGEAQAKKLGNNCVFAPADVTSEKDVQTALALAKGKFGRVDVAVNCAGIAVASKTYNLKKGQTHTLEDFQRVLDVNLMGTFNVIRLVAGEMGQNEPDQGGQRGVIINTASVAAFEGQVGQAAYSASKGGIVGMTLPIARDLAPIGIRVMTIAPGLFGTPLLTSLPEKVCNFLASQVPFPSRLGDPAEYAHLVQAIIENPFLNGEVIRLDGAIRMQP
stoichiometry N [8]: 4
